Results as given in patent publication US5849259A, “3-,8-substituted deuteroporphyrin derivatives, pharmaceutical agents containing the latter and process for their production” (priority 1992, dated 1998).

Tests used:
VX-2 carcinoma = experiment: Signal intensity in tissues of tumor-bearing rabbit (VX-2 carcinoma), Siemens Magneton 1.5 Tesla; assay type: in vivo
Description: On a Siemens Magneton^(R) (1.5 Tesla; 64 MHz), the signal intensity in various tissues of a tumor-bearing rabbit [hare rabbit, Wulf, female, approximately 4 kg body weight (n=3), tumor of VX-2 carcinoma implanted intramuscularly about 3 weeks before the beginning of the test) was studied after the i.v. administration of […] body weight (corresponding to 0.05 mmol/kg of gadolinium) of the compound according to the invention produced according to Example 1c. The measurement took place with the following imaging parameters: T1 -weighted spin echo sequence: TR : 350 ms, TE : 15 ms, layer orientation: coronary, layer thickness 3 mm, number of averages: 4 per layer, field of view: 150 mm, matrix 256^2, 4-6 layers 1 echo per imaging sequence.
The relative signal intensities in various tissues are represented in FIG. 4. The output signal intensity (=SIprecontrast) in the various tissues was set equal to 1 in each case.

[1] = Tissue concentrations by ICP-AES 2 hours after 0.1 mmol/kg i.v. in nude mice with implanted carcinomas (HT29, WiDr, MATLu); assay type: in vivo, nude mice (Balb/c nu/nu)
Experimental: f) 9 nude mice (Balb/c nu/nu) with subcutaneously implanted carcinomas (HT29, WiDr and MATLu) were each administered by i.v. 0.1 mmol/kg of the deuteroporphyrin derivative of example 1c (10 mmol/L dissolved in bidistilled water, pH 7.2, 37° C.). After 2 hours, the animals were killed and dissected. The tissue concentrations were determined after corresponding working-up (HNO3 conc.) by ICP-AES and calculated for % of the administered dose per gram of tissue net weight. Moreover, tissue relaxation times T1 and T2 were determined (Bruker minispec pc 120). To determine the blank readings, control animals were correspondingly studied without KM-administration.

Novikoff-hepatoma = experiment: Signal intensity change in tissues of tumor-bearing (Novikoff-hepatoma, i.m.) nude rats, Bruker Biospec 2.35 Tesla, MSSE; assay type: in vivo, nude rats (LEW/Mol rnu/rnu); conditions: 0.1 mmol/kg i.v.
Description: The measurements were made with a multi slice single echo sequence (MSSE). […] […] The relative intensities relative to the respective initial intensity (=1.00 set) are indicated.

[2] = 0.0025 mmol/kg i.v. (corresponding to 0.05 mmol/kg of gadolinium)

**Q.** Which results are given for “N,N'-Bis[9-carboxylato-2,5,8-tris(carboxylatomethyl)-2,5,8-triazanonyl-carbamoyl]-mesoporphyrin-IX-13,17-diamide, digadolinium complex, disodium salt [Example 1c]”?
**A.** enhancement, implanted tumor (VX-2 carcinoma; [2]): good long acting enhancement; enhancement, majority of the lymph nodes on the tumor-bearing side (VX-2 carcinoma; [2]): good long acting enhancement; diagnosis of metastasis of the lymph nodes (VX-2 carcinoma; confirmed by histological study): a metastasis attack of the lymph nodes could therefore be diagnosed; tissue concentration in prostate cancer (MATLu) versus colon cancers ([1]; 2 hours, 0.1 mmol/kg i.v.): greater than in the colon cancers; tissue concentration, kidneys ([1]; HT29 mice, 2 hours): 6.23 ± 1.80 % of the administered dose per gram of tissue net weight; tissue concentration, kidneys ([1]; MATLu mice, 2 hours): 2.73 ± 0.33 % of the administered dose per gram of tissue net weight; tissue concentration, kidneys ([1]; WiDr mice, 2 hours): 4.23 ± 0.19 % of the administered dose per gram of tissue net weight; tissue concentration, HT29 tumor ([1]; mouse, in vivo, iv, 2 h): 1.00 ± 0.27 % of the administered dose per gram of tissue net weight; tissue concentration, MATLu tumor ([1]; mouse, in vivo, iv, 2 h): 1.92 ± 2.09 % of the administered dose per gram of tissue net weight; tissue concentration, WiDr tumor ([1]; mouse, in vivo, iv, 2 h): 0.83 ± 0.05 % of the administered dose per gram of tissue net weight; elimination route (Novikoff-hepatoma): eliminated mainly renally; average enhancement, Kidneys (Novikoff-hepatoma; 1 min): 1.67 ± 0.35; average enhancement, Liver (Novikoff-hepatoma; 1 min): 1.43 ± 0.24; average enhancement, Muscle (Novikoff-hepatoma; 1 min): 1.60 ± 0.01; average enhancement, Tumor (Novikoff-hepatoma; 1 min): 1.63 ± 0.24; average enhancement, Kidneys (Novikoff-hepatoma; 15 min): 2.13 ± 0.28; average enhancement, Liver (Novikoff-hepatoma; 15 min): 1.34 ± 0.22; average enhancement, Muscle (Novikoff-hepatoma; 15 min): 1.54 ± 0.06; average enhancement, Tumor (Novikoff-hepatoma; 15 min): 1.71 ± 0.19; average enhancement, Kidneys (Novikoff-hepatoma; 30 min): 2.14 ± 0.38; average enhancement, Liver (Novikoff-hepatoma; 30 min): 1.31 ± 0.21; average enhancement, Muscle (Novikoff-hepatoma; 30 min): 1.47 ± 0.08; average enhancement, Tumor (Novikoff-hepatoma; 30 min): 1.72 ± 0.23; average enhancement, Kidneys (Novikoff-hepatoma; 45 min): 2.10 ± 0.30; average enhancement, Liver (Novikoff-hepatoma; 45 min): 1.17 ± 0.16; average enhancement, Muscle (Novikoff-hepatoma; 45 min): 1.41 ± 0.10; average enhancement, Tumor (Novikoff-hepatoma; 45 min): 1.79 ± 0.21; average enhancement, Kidneys (Novikoff-hepatoma; 60 min): 2.12 ± 0.19; average enhancement, Liver (Novikoff-hepatoma; 60 min): 1.31 ± 0.09; average enhancement, Muscle (Novikoff-hepatoma; 60 min): 1.33 ± 0.05; average enhancement, Tumor (Novikoff-hepatoma; 60 min): 1.78 ± 0.24; average enhancement, Kidneys (Novikoff-hepatoma; 75 min): 1.93 ± 0.19; average enhancement, Liver (Novikoff-hepatoma; 75 min): 1.37 ± 0.05; average enhancement, Muscle (Novikoff-hepatoma; 75 min): 1.37 ± 0.01; average enhancement, Tumor (Novikoff-hepatoma; 75 min): 1.64 ± 0.17; average enhancement, Kidneys (Novikoff-hepatoma; 90 min): 1.96 ± 0.08; average enhancement, Liver (Novikoff-hepatoma; 90 min): 1.22 ± 0.24; average enhancement, Muscle (Novikoff-hepatoma; 90 min): 1.24 ± 0.03; average enhancement, Tumor (Novikoff-hepatoma; 90 min): 1.75 ± 0.27; average enhancement, Kidneys (Novikoff-hepatoma; 120 min): 1.92 ± 0.33; average enhancement, Liver (Novikoff-hepatoma; 120 min): 1.23 ± 0.07; average enhancement, Muscle (Novikoff-hepatoma; 120 min): 1.28 ± 0.08; average enhancement, Tumor (Novikoff-hepatoma; 120 min): 1.77 ± 0.23; average enhancement, Kidneys (Novikoff-hepatoma; 150 min): 1.86 ± 0.18; average enhancement, Liver (Novikoff-hepatoma; 150 min): 1.16 ± 0.22; average enhancement, Muscle (Novikoff-hepatoma; 150 min): 1.20 ± 0.06; average enhancement, Tumor (Novikoff-hepatoma; 150 min): 1.73 ± 0.23; average enhancement, Kidneys (Novikoff-hepatoma; 180 min): 1.84 ± 0.24; average enhancement, Liver (Novikoff-hepatoma; 180 min): 1.07 ± 0.20; average enhancement, Muscle (Novikoff-hepatoma; 180 min): 1.15 ± 0.04; average enhancement, Tumor (Novikoff-hepatoma; 180 min): 1.85 ± 0.09; average enhancement, Kidneys (Novikoff-hepatoma; 190 min): 1.73 ± 0.00; average enhancement, Liver (Novikoff-hepatoma; 190 min): 1.27 ± 0.00; average enhancement, Muscle (Novikoff-hepatoma; 190 min): 1.21 ± 0.00; average enhancement, Tumor (Novikoff-hepatoma; 190 min): 1.45 ± 0.00; signal intensity, liver and muscles (Novikoff-hepatoma; after 2-3 hours): the initial intensity almost returned; increase in the intensity, studied tissues (Novikoff-hepatoma; directly after administration): ~60%; signal intensity, tumor (Novikoff-hepatoma; during the observation time): remained at an almost unchanged high level; signal intensity, kidneys relative to tumors (Novikoff-hepatoma; up to 150 minutes): high above that which could be determined in the tumors
